Measured values as given in US8697683B2, “Azetidinyl diamides as monoacylglycerol lipase inhibitors” (Janssen Pharmaceutica, NV, priority 2009, dated 2014).

Target: T1, MGL (Rattus norvegicus, UniProt Q8R431)
T1 construct: one g rat brain was homogenized
T1 sequence (Q8R431 1-303): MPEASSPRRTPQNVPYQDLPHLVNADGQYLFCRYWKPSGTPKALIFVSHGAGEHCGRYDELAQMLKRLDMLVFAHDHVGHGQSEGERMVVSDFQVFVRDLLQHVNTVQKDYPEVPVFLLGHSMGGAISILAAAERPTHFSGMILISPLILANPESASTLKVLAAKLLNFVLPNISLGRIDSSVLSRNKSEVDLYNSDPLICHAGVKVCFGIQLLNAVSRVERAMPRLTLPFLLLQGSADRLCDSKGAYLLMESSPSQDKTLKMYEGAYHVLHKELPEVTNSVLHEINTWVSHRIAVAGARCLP
Test: 2-AG Accumulation Assay (rat brain homogenate)
Format: biochemical
Conditions: compound 1 μM, percent of vehicle 2-AG accumulation

Row | SMILES | Rat Brain 2AG % VehCntrl (%) @1 μM
1 | O=C(c1ccc2c(ccn2-c2cccc(C(F)(F)F)c2)c1)N1CC(N2CCN(C(=O)c3nccs3)CC2)C1 [Cpd 1356, 5-({3-[4-(1,3-Thiazol-2-ylcarbonyl)piperazin-1-yl]azetidin-1-yl}carbonyl)-1-[3-(trifluoromethyl)phenyl]-1H-indole] | 1420%
2 | O=C(c1ccc(CNc2cccc(Cl)c2)cc1)N1CC(N2CCN(C(=O)c3nccs3)CC2)C1 [Cpd 455] | 1013%
3 | Cn1cc(-c2ccc(F)cc2)c2ccc(C(=O)N3CC(N4CCN(C(=O)c5nccs5)CC4)C3)cc21 [Cpd 1318, 3-(4-Fluorophenyl)-1-methyl-6-({3-[4-(1,3-thiazol-2-ylcarbonyl)piperazin-1-yl]azetidin-1-yl}carbonyl)-1H-indole] | 1282%
4 | O=C(c1ccc(CSc2cccc(Cl)c2)cc1)N1CC(N2CCN(C(=O)c3nccs3)CC2)C1 [Cpd 454] | 1066%
5 | O=C(c1ccc(Cc2ccc(C(F)(F)F)cc2)cc1)N1CC(N2CCN(C(=O)c3nccs3)CC2)C1 [Cpd 985] | 1116%
6 | O=C(c1ccc2c(ccn2-c2ccc(C(F)(F)F)cc2)c1)N1CC(N2CCN(C(=O)c3nccs3)CC2)C1 [Cpd 1357, 5-({3-[4-(1,3-Thiazol-2-ylcarbonyl)piperazin-1-yl]azetidin-1-yl}carbonyl)-1-[4-(trifluoromethyl)phenyl]-1H-indole] | 2570%
7 | Cc1c(C(=O)N2CC(N3CCN(C(=O)c4nccs4)CC3)C2)sc2ccc(C(F)(F)F)cc12 [Cpd 897] | 1234%
8 | Cn1cc(-c2cccc(C(F)(F)F)c2)c2ccc(C(=O)N3CC(N4CCN(C(=O)c5cscn5)CC4)C3)cc21 [Cpd 1084] | 1165%
9 | O=C(c1nccs1)N1CCN(C2CN(C(=O)c3ccc(-c4cccc(C(F)(F)F)c4)cc3Cl)C2)CC1 [Cpd 250, 1-(1-{[3-Chloro-3′-(trifluoromethyl)biphenyl-4-yl]carbonyl}azetidin-3-yl)-4-(1,3-thiazol-2-ylcarbonyl)piperazine] | 1011%
10 | O=C(c1ccc2c(ccn2-c2ncccn2)c1)N1CC(N2CCN(C(=O)c3nccs3)CC2)C1 [Cpd 1174, 1-Pyrimidin-2-yl-5-({3-[4-(1,3-thiazol-2-ylcarbonyl)piperazin-1-yl]azetidin-1-yl}carbonyl)-1H-indole] | 1021%
11 | O=C(c1nccs1)N1CCN(C2CN(C(=O)c3sc4cc(Br)ccc4c3Cl)C2)CC1 [Cpd 326, 1-{1-[(6-Bromo-3-chloro-1-benzothiophen-2-yl)carbonyl]azetidin-3-yl}-4-(1,3-thiazol-2-ylcarbonyl)piperazine] | 1336%
12 | O=C(c1ccc2nc(N3CCC(F)(F)CC3)sc2c1)N1CC(N2CCN(C(=O)c3nccs3)CC2)C1 [Cpd 671] | 1035%
13 | O=C(c1ccc(OCc2cccc(Cl)c2)cc1)N1CC(N2CCN(C(=O)c3nccs3)CC2)C1 [Cpd 957] | 1442%
14 | O=C(c1ccc2c(c1)CCN(S(=O)(=O)c1ccc(C(F)(F)F)cc1)C2)N1CC(N2CCN(C(=O)c3nccs3)CC2)C1 [Cpd 928] | 1207%
15 | Cc1cc(-c2cccc(C(F)(F)F)c2)ccc1C(=O)N1CC(N2CCN(C(=O)c3nccs3)CC2)C1 [Cpd 239, 1-(1-{[3-Methyl-3′-(trifluoromethyl)biphenyl-4-yl]carbonyl}azetidin-3-yl)-4-(1,3-thiazol-2-ylcarbonyl)piperazine] | 1097%
16 | O=C(c1ccc2c(ccn2-c2ccc(C(F)(F)F)cc2)c1)N1CC(N2CCN(C(=O)c3cscn3)CC2)C1 [Cpd 1359, 5-({3-[4-(1,3-Thiazol-4-ylcarbonyl)piperazin-1-yl]azetidin-1-yl}carbonyl)-1-[4-(trifluoromethyl)phenyl]-1H-indole] | 1016%
17 | Cn1cc(-c2cccc(C(F)(F)F)c2)c2ccc(C(=O)N3CC(N4CCN(C(=O)c5nccs5)CC4)C3)cc21 [Cpd 1100] | 1133%
18 | O=C(c1ccc2nc(-c3cccc(C(F)(F)F)c3)oc2c1)N1CC(N2CCN(C(=O)c3nccs3)CC2)C1 [Cpd 1158, 6-({3-[4-(1,3-Thiazol-2-ylcarbonyl)piperazin-1-yl]azetidin-1-yl}carbonyl)-2-[3-(trifluoromethyl)phenyl]-1,3-benzoxazole] | 1623%

Same assay, conditions: compound 10 μM, percent of vehicle 2-AG accumulation

Row | SMILES | Rat Brain 2AG % VehCntrl (%) @10 μM
19 | O=C(c1ccc(SCc2ccc(Cl)cc2)cc1)N1CC(N2CCN(C(=O)c3nccs3)CC2)C1 [Cpd 415] | 1629%
20 | O=C(c1ccc(OCc2ccc(Cl)c(Cl)c2)c(F)c1)N1CC(N2CCN(C(=O)c3nccs3)CC2)C1 [Cpd 400, 1-[1-({4-[(3,4-Dichlorobenzyl)oxy]-3 fluorophenyl}carbonyl)azetidin-3-yl]-4-(1,3-thiazol-2-ylcarbonyl)piperazine] | 1076%
21 | O=C(c1ccc(-c2ccc3ccccc3c2)cc1)N1CC(N2CCN(C(=O)c3nccs3)CC2)C1 [Cpd 182, 1-{1-[(4-Naphthalen-2-ylphenyl)carbonyl]azetidin-3-yl}-4-(1,3-thiazol-2-ylcarbonyl)piperazine] | 1500%
22 | O=C(c1ccc(-c2cccc(C(F)(F)F)c2)cc1)N1CC(N2CCN(C(=O)c3cscn3)CC2)C1 [Cpd 229, 1-(1,3-Thiazol-4-ylcarbonyl)-4-(1-{[3′-(trifluoromethyl)biphenyl-4-yl]carbonyl}azetidin-3-yl)piperazine] | 1304%
23 | O=C(c1ccccc1)N1CCN(C2CN(C(=O)c3ccc4nc(-c5cccc(C(F)(F)F)c5)oc4c3)C2)CC1 [Cpd 131, 6-({3-[4-(Phenylcarbonyl)piperazin-1-yl]azetidin-1-yl}carbonyl)-2-[3-(trifluoromethyl)phenyl]-1,3-benzoxazole] | 1406%
24 | CN(CC1CCCCC1)c1ccc(CCC(=O)N2CC(N3CCN(C(=O)c4nccs4)CC3)C2)cc1 [Cpd 291, N-(Cyclohexylmethyl)-N-methyl-4-(3-oxo-3-{3-[4-(1,3-thiazol-2-ylcarbonyl)piperazin-1-yl]azetidin-1-yl}propyl)aniline] | 1019%
25 | CN(C)S(=O)(=O)Nc1cccc(-c2ccc(C(=O)N3CC(N4CCN(C(=O)c5ccccc5)CC4)C3)cc2)c1 [Cpd 205, N,N-Dimethyl-N′-[4′-({3-[4-(phenylcarbonyl)piperazin-1-yl]azetidin-1-yl}carbonyl)biphenyl-3-yl]sulfamide] | 1172%
26 | O=C(c1nccs1)N1CCN(C2CN(C(=O)c3ccc(-c4cccc(C(F)(F)F)c4)cc3Cl)C2)CC1 [Cpd 250, 1-(1-{[3-Chloro-3′-(trifluoromethyl)biphenyl-4-yl]carbonyl}azetidin-3-yl)-4-(1,3-thiazol-2-ylcarbonyl)piperazine] | 1327%
27 | O=C(c1ccc(-c2ccccc2)cc1)N1CC(N2CCN(C(=O)c3nccs3)CC2)C1 [Cpd 9, 1-[1-(Biphenyl-4-ylcarbonyl)azetidin-3-yl]-4-(1,3-thiazol-2-ylcarbonyl)piperazine] | 1026%
28 | O=C(c1ccc(-c2cccc(Cl)c2)cc1)N1CC(N2CCN(C(=O)c3nccs3)CC2)C1 [Cpd 162, 1-{1-[(3′-Chlorobiphenyl-4-yl)carbonyl]azetidin-3-yl}-4-(1,3-thiazol-2-ylcarbonyl)piperazine] | 1099%
29 | O=C(c1ccc(-c2cccc([N+](=O)[O-])c2)cc1)N1CC(N2CCN(C(=O)c3nccs3)CC2)C1 [Cpd 183, 1-{1-[(3′-Nitrobiphenyl-4-yl)carbonyl]azetidin-3-yl}-4-(1,3-thiazol-2-ylcarbonyl)piperazine] | 1090%
30 | O=C(c1ccc(-c2ccc(F)c(Cl)c2)cc1)N1CC(N2CCN(C(=O)c3nccs3)CC2)C1 [Cpd 178, 1-{1-[(3′-Chloro-4′-fluorobiphenyl-4-yl)carbonyl]azetidin-3-yl}-4-(1,3-thiazol-2-ylcarbonyl)piperazine] | 1192%
31 | O=C(c1ccc(-c2ccc(Cl)c(Cl)c2)cc1)N1CC(N2CCN(C(=O)c3nccs3)CC2)C1 [Cpd 175, 1-{1-[(3′,4′-Dichlorobiphenyl-4-yl)carbonyl]azetidin-3-yl}-4-(1,3-thiazol-2-ylcarbonyl)piperazine] | 1180%
32 | O=C(c1ccccc1)N1CCN(C2CN(C(=O)c3ccc(NCc4ccc(F)c(C(F)(F)F)c4)cc3)C2)CC1 [Cpd 494, N-[4-Fluoro-3-(trifluoromethyl)benzyl]-4-({3-[4-(phenylcarbonyl)piperazin-1-yl]azetidin-1-yl}carbonyl)aniline] | 1121%
33 | Cc1cc(-c2cccc(C(F)(F)F)c2)ccc1C(=O)N1CC(N2CCN(C(=O)c3nccs3)CC2)C1 [Cpd 239, 1-(1-{[3-Methyl-3′-(trifluoromethyl)biphenyl-4-yl]carbonyl}azetidin-3-yl)-4-(1,3-thiazol-2-ylcarbonyl)piperazine] | 1353%
34 | O=C(c1ccc(OCc2cccc(Cl)c2Cl)c(F)c1)N1CC(N2CCN(C(=O)c3nccs3)CC2)C1 [Cpd 405, 1-[1-({4-[(2,3-Dichlorobenzyl)oxy]-3-fluorophenyl}carbonyl)azetidin-3-yl]-4-(1,3-thiazol-2-ylcarbonyl)piperazine] | 1591%
35 | CC(=O)c1ccc(-c2ccc(C(=O)N3CC(N4CCN(C(=O)c5nccs5)CC4)C3)cc2)cc1 [Cpd 209, 1-[4′-({3-[4-(1,3-Thiazol-2-ylcarbonyl)piperazin-1-yl]azetidin-1-yl}carbonyl)biphenyl-4-yl]ethanone] | 1681%
36 | O=C(c1ccc(SCc2cccc(Cl)c2)cc1)N1CC(N2CCN(C(=O)c3nccs3)CC2)C1 [Cpd 412, 1-[1-({4-[(3-Chlorobenzyl)sulfanyl]phenyl}carbonyl)azetidin-3-yl]-4-(1,3-thiazol-2-ylcarbonyl)piperazine] | 1271%
